ChEMBL document CHEMBL1140277, “Antibiotics GE23077, novel inhibitors of bacterial RNA polymerase. Part 3: Chemical derivatization” (Bioorg Med Chem Lett, 2005)
≈ marks a conversion by molar mass, not a printed value. Numbered stars: 1 amine (or outer) side, 2 acyl side, 3 side chain; on linkers, the order of the positions; unused ones are H or OH. Square brackets hold non-standard residues; d marks the D form. Peptide text beside a SMILES is read from it. * marks the point of attachment. ξ: configuration not given here. ξGln(3,4-(OH)2) = NC(=O)C(O)C(O)C(N)C(=O)O; isoSer(2S) = O=C([C@@H](O)CN[*:1])[*:2]; ξAllylGly = C=CCC(N)C(=O)O; X1 = CC(NCc1ccccc1)C(=O)*; ξE = NC(CCC(=O)O)C(=O)O; Dap = NC[C@H](N)C(=O)O; X2 = C/C=C(/C)C(=O)*

Experiments:
[1] = Inhibitory concentration against RNA polymerase from Escherichia coli using cell freei transcription assay; assay type: functional
[2] = Minimum inhibitory concentration against Moraxella catarrhalis using broth microdilution method; assay type: functional

| SMILES | IC50 [1] | MIC [2] |
| --- | --- | --- |
| CC(NCc1ccc(C(F)(F)F)cc1)C(=O)NC[C@@H]1NC(=O)C(C(=O)O)NC(=O)[C@@H](O)CNC(=O)[C@H]([C@@H](C)O)NC(=O)C(C(O)C(O)C(N)=O)NC(=O)[C@H](C(C)C)NC(=O)[C@H](CO)NC1=O (some centres undefined) | 0.05 µg/mL (≈ 0.0526 µM) | 256 µg/mL (≈ 269 µM) |
| CC(NCc1cc(C(F)(F)F)cc(C(F)(F)F)c1)C(=O)NC[C@@H]1NC(=O)C(C(=O)O)NC(=O)[C@@H](O)CNC(=O)[C@H]([C@@H](C)O)NC(=O)C(C(O)C(O)C(N)=O)NC(=O)[C@H](C(C)C)NC(=O)[C@H](CO)NC1=O (some centres undefined) | 0.24 µg/mL (≈ 0.236 µM) | 512 µg/mL (≈ 503 µM) |
| CC(NCc1cc(F)c(F)c(F)c1)C(=O)NC[C@@H]1NC(=O)C(C(=O)O)NC(=O)[C@@H](O)CNC(=O)[C@H]([C@@H](C)O)NC(=O)C(C(O)C(O)C(N)=O)NC(=O)[C@H](C(C)C)NC(=O)[C@H](CO)NC1=O (some centres undefined) | 0.06 µg/mL (≈ 0.064 µM) | 64 µg/mL (≈ 68.3 µM) |
| CC(NCC(F)(F)F)C(=O)NC[C@@H]1NC(=O)C(C(=O)O)NC(=O)[C@@H](O)CNC(=O)[C@H]([C@@H](C)O)NC(=O)C(C(O)C(O)C(N)=O)NC(=O)[C@H](C(C)C)NC(=O)[C@H](CO)NC1=O (some centres undefined) | 0.17 µg/mL (≈ 0.194 µM) | > 512 µg/mL |
| CC(O)C(=O)NC[C@@H]1NC(=O)C(C(=O)O)NC(=O)[C@@H](O)CNC(=O)[C@H]([C@@H](C)O)NC(=O)C(C(O)C(O)C(N)=O)NC(=O)[C@H](C(C)C)NC(=O)[C@H](CO)NC1=O (some centres undefined) | 0.11 µg/mL (≈ 0.139 µM) | 64 µg/mL (≈ 80.6 µM) |
| C/C=C(/C)C(=O)NC[C@@H]1NC(=O)[C@@H](C(=O)O)NC(=O)[C@@H](O)CNC(=O)[C@H]([C@@H](C)O)NC(=O)C(C(O)C(O)C(N)=O)NC(=O)[C@H](C(C)C)NC(=O)[C@H](CO)NC1=O (some centres undefined) | 0.03 µg/mL (≈ 0.0373 µM) | 8 µg/mL (≈ 9.95 µM) |
| C/C=C(/C)C(=O)NC[C@@H]1NC(=O)C(C(=O)OC)NC(=O)[C@@H](O)CNC(=O)[C@H]([C@@H](C)O)NC(=O)C(C(O)C(O)CN)NC(=O)[C@H](C(C)C)NC(=O)[C@H](CO)NC1=O (some centres undefined) | 3.14 µg/mL (≈ 3.91 µM) | 32 µg/mL (≈ 39.8 µM) |
| C/C=C(/C)C(=O)NC[C@@H]1NC(=O)C(C(=O)OC)NC(=O)[C@@H](O)CNC(=O)[C@H]([C@@H](C)O)NC(=O)C(C(O)C(O)CNC(=O)/C=C/c2ccccc2)NC(=O)[C@H](C(C)C)NC(=O)[C@H](CO)NC1=O (some centres undefined) | > 3.2 µg/mL | > 512 µg/mL |
| C/C=C(/C)C(=O)NC[C@@H]1NC(=O)C(C(=O)OC)NC(=O)[C@@H](O)CNC(=O)[C@H]([C@@H](C)O)NC(=O)C(C(O)C(O)CNC(=O)C(CCCC)CCCCCC)NC(=O)[C@H](C(C)C)NC(=O)[C@H](CO)NC1=O (some centres undefined) | > 3.2 µg/mL | > 512 µg/mL |
| C/C=C(/C)C(=O)NC[C@@H]1NC(=O)C(C(=O)OC)NC(=O)[C@@H](O)CNC(=O)[C@H]([C@@H](C)O)NC(=O)C(C(O)C(O)CNC(=O)Cc2ccc(-c3ccccc3)cc2)NC(=O)[C@H](C(C)C)NC(=O)[C@H](CO)NC1=O (some centres undefined) | > 3.2 µg/mL | > 512 µg/mL |
| C/C=C(/C)C(=O)NC[C@@H]1NC(=O)C(C(=O)OC)NC(=O)[C@@H](O)CNC(=O)[C@H]([C@@H](C)O)NC(=O)C(C(O)C(O)C(N)=O)NC(=O)[C@H](C(C)C)NC(=O)[C@H](CO)NC1=O (some centres undefined) | 0.15 µg/mL (≈ 0.183 µM) | 8 µg/mL (≈ 9.78 µM) |
| C/C=C(/C)C(=O)NC[C@@H]1NC(=O)C(C(=O)OCC)NC(=O)[C@@H](O)CNC(=O)[C@H]([C@@H](C)O)NC(=O)C(C(O)C(O)C(N)=O)NC(=O)[C@H](C(C)C)NC(=O)[C@H](CO)NC1=O (some centres undefined) | 0.1 µg/mL (≈ 0.12 µM) | 64 µg/mL (≈ 76.9 µM) |
| C=CCOC(=O)C1NC(=O)[C@@H](O)CNC(=O)[C@H]([C@@H](C)O)NC(=O)C(C(O)C(O)C(N)=O)NC(=O)[C@H](C(C)C)NC(=O)[C@H](CO)NC(=O)[C@H](CNC(=O)/C(C)=C\C)NC1=O (some centres undefined) | 0.4 µg/mL (≈ 0.474 µM) |  |
| C/C=C(/C)C(=O)NC[C@@H]1NC(=O)C(C(=O)NCc2ccccc2)NC(=O)[C@@H](O)CNC(=O)[C@H]([C@@H](C)O)NC(=O)C(C(O)C(O)C(N)=O)NC(=O)[C@H](C(C)C)NC(=O)[C@H](CO)NC1=O (some centres undefined) | 0.3 µg/mL (≈ 0.336 µM) | 128 µg/mL (≈ 143 µM) |
| C/C=C(/C)C(=O)NC[C@@H]1NC(=O)C(C(=O)N(C)OC)NC(=O)[C@@H](O)CNC(=O)[C@H]([C@@H](C)O)NC(=O)C(C(O)C(O)C(N)=O)NC(=O)[C@H](C(C)C)NC(=O)[C@H](CO)NC1=O (some centres undefined) | 0.4 µg/mL (≈ 0.472 µM) |  |
| C/C=C(/C)C(=O)NC[C@@H]1NC(=O)C(C(=O)NC(Cc2ccc(O)cc2)C(=O)O)NC(=O)[C@@H](O)CNC(=O)[C@H]([C@@H](C)O)NC(=O)C(C(O)C(O)C(N)=O)NC(=O)[C@H](C(C)C)NC(=O)[C@H](CO)NC1=O (some centres undefined) |  | 512 µg/mL (≈ 529 µM) |

| SMILES | IC50 [1] | MIC [2] |
| --- | --- | --- |
| C/C=C(/C)C(=O)NC[C@@H]1NC(=O)C(C(=O)N[C@@H](C)C(=O)N[C@@H](C)C(=O)OC)NC(=O)[C@@H](O)CNC(=O)[C@H]([C@@H](C)O)NC(=O)C(C(O)C(O)C(N)=O)NC(=O)[C@H](C(C)C)NC(=O)[C@H](CO)NC1=O (some centres undefined) | > 3.2 µg/mL | 64 µg/mL (≈ 66.7 µM) |
| CC(=O)C(=O)NC[C@@H]1NC(=O)C(C(=O)O)NC(=O)[C@@H](O)CNC(=O)[C@H]([C@@H](C)O)NC(=O)C(C(O)C(O)C(N)=O)NC(=O)[C@H](C(C)C)NC(=O)[C@H](CO)NC1=O (some centres undefined) | 0.07 µg/mL (≈ 0.0884 µM) | 8 µg/mL (≈ 10.1 µM) |
| CC(NCc1ccccc1)C(=O)NC[C@@H]1NC(=O)C(C(=O)O)NC(=O)[C@@H](O)CNC(=O)[C@H]([C@@H](C)O)NC(=O)C(C(O)C(O)C(N)=O)NC(=O)[C@H](C(C)C)NC(=O)[C@H](CO)NC1=O (some centres undefined) | 0.07 µg/mL (≈ 0.0793 µM) | 32 µg/mL (≈ 36.2 µM) |
| CC(NCC1CCCCC1)C(=O)NC[C@@H]1NC(=O)C(C(=O)O)NC(=O)[C@@H](O)CNC(=O)[C@H]([C@@H](C)O)NC(=O)C(C(O)C(O)C(N)=O)NC(=O)[C@H](C(C)C)NC(=O)[C@H](CO)NC1=O (some centres undefined) | 0.42 µg/mL (≈ 0.472 µM) | 16 µg/mL (≈ 18 µM) |
| CC(N)C(=O)NC[C@@H]1NC(=O)C(C(=O)O)NC(=O)[C@@H](O)CNC(=O)[C@H]([C@@H](C)O)NC(=O)C(C(O)C(O)C(N)=O)NC(=O)[C@H](C(C)C)NC(=O)[C@H](CO)NC1=O (some centres undefined) | 0.28 µg/mL (≈ 0.353 µM) | 64 µg/mL (≈ 80.7 µM) |
| CCCCCCCCc1ccc(C(=O)NC(C)C(=O)NC[C@@H]2NC(=O)C(C(=O)O)NC(=O)[C@@H](O)CNC(=O)[C@H]([C@@H](C)O)NC(=O)C(C(O)C(O)C(N)=O)NC(=O)[C@H](C(C)C)NC(=O)[C@H](CO)NC2=O)cc1 (some centres undefined) | 0.07 µg/mL (≈ 0.0694 µM) | > 512 µg/mL |
| CC(NC(=O)/C=C/c1ccccc1)C(=O)NC[C@@H]1NC(=O)C(C(=O)O)NC(=O)[C@@H](O)CNC(=O)[C@H]([C@@H](C)O)NC(=O)C(C(O)C(O)C(N)=O)NC(=O)[C@H](C(C)C)NC(=O)[C@H](CO)NC1=O (some centres undefined) | 0.08 µg/mL (≈ 0.0867 µM) | 128 µg/mL (≈ 139 µM) |
| CC(NC(=O)Cc1ccc(-c2ccccc2)cc1)C(=O)NC[C@@H]1NC(=O)C(C(=O)O)NC(=O)[C@@H](O)CNC(=O)[C@H]([C@@H](C)O)NC(=O)C(C(O)C(O)C(N)=O)NC(=O)[C@H](C(C)C)NC(=O)[C@H](CO)NC1=O (some centres undefined) | 0.22 µg/mL (≈ 0.223 µM) | > 512 µg/mL |
| CCCCCCCCC(=O)NC(C)C(=O)NC[C@@H]1NC(=O)C(C(=O)O)NC(=O)[C@@H](O)CNC(=O)[C@H]([C@@H](C)O)NC(=O)C(C(O)C(O)C(N)=O)NC(=O)[C@H](C(C)C)NC(=O)[C@H](CO)NC1=O (some centres undefined) | 0.09 µg/mL (≈ 0.0965 µM) | 256 µg/mL (≈ 274 µM) |
| CCCCCCC(CCCC)C(=O)NC(C)C(=O)NC[C@@H]1NC(=O)C(C(=O)O)NC(=O)[C@@H](O)CNC(=O)[C@H]([C@@H](C)O)NC(=O)C(C(O)C(O)C(N)=O)NC(=O)[C@H](C(C)C)NC(=O)[C@H](CO)NC1=O (some centres undefined) | 0.13 µg/mL (≈ 0.133 µM) | 512 µg/mL (≈ 525 µM) |
| CCCCCCCCCCCCCCCCCC(=O)NC(C)C(=O)NC[C@@H]1NC(=O)[C@@H](C(=O)O)NC(=O)[C@@H](O)CNC(=O)[C@H]([C@@H](C)O)NC(=O)C(C(O)C(O)C(N)=O)NC(=O)[C@H](C(C)C)NC(=O)[C@H](CO)NC1=O (some centres undefined) | 0.57 µg/mL (≈ 0.538 µM) | > 512 µg/mL |
| CC(NCc1ccccc1)C(=O)NC[C@@H]1NC(=O)CNC(=O)[C@@H](O)CNC(=O)[C@H]([C@@H](C)O)NC(=O)C(C(O)C(O)C(N)=O)NC(=O)[C@H](C(C)C)NC(=O)[C@H](CO)NC1=O (stereo partly drawn) (cyclo([Dap](X1)SV[ξGln(3,4-(OH)2)]T[isoSer(2S)]G)) | 1.05 µg/mL (≈ 1.25 µM) | 128 µg/mL (≈ 153 µM) |
| C/C=C(/C)C(=O)NC[C@@H]1NC(=O)CNC(=O)[C@@H](O)CNC(=O)[C@H]([C@@H](C)O)NC(=O)C(C(O)C(O)C(N)=O)NC(=O)[C@H](C(C)C)NC(=O)[C@H](CO)NC1=O (stereo partly drawn) (cyclo([Dap](X2)SV[ξGln(3,4-(OH)2)]T[isoSer(2S)]G)) | 0.65 µg/mL (≈ 0.856 µM) | 16 µg/mL (≈ 21.1 µM) |
| C=CCC1NC(=O)[C@@H](O)CNC(=O)[C@H]([C@@H](C)O)NC(=O)C(C(O)C(O)C(N)=O)NC(=O)[C@H](C(C)C)NC(=O)[C@H](CO)NC(=O)[C@H](CNC(=O)/C(C)=C\C)NC1=O (stereo partly drawn) (cyclo([Dap](X2)SV[ξGln(3,4-(OH)2)]T[isoSer(2S)][ξAllylGly])) | 2.24 µg/mL (≈ 2.8 µM) | 32 µg/mL (≈ 40 µM) |
| C/C=C(/C)C(=O)NC[C@@H]1NC(=O)C(CCC(=O)O)NC(=O)[C@@H](O)CNC(=O)[C@H]([C@@H](C)O)NC(=O)C(C(O)C(O)C(N)=O)NC(=O)[C@H](C(C)C)NC(=O)[C@H](CO)NC1=O (stereo partly drawn) (cyclo([Dap](X2)SV[ξGln(3,4-(OH)2)]T[isoSer(2S)][ξE])) | 0.2 µg/mL (≈ 0.24 µM) | 8 µg/mL (≈ 9.62 µM) |
